Test results taken from ChEMBL document CHEMBL5096225 (J Med Chem, 2022).
≈ marks a conversion by molar mass, not a printed value.

Assay: Solubility of the compound in deionized water
Assay type: physicochemical

Row | SMILES | solubility [µg/mL]
1 | O=C(c1cc(O)cc(F)c1)c1cc(O)c(O)c([N+](=O)[O-])c1 | 56 (≈ 191 µM)
2 | Cc1ccc(C(=O)c2cc(O)c(O)c([N+](=O)[O-])c2)cc1 [TOLCAPONE] | 45 (≈ 165 µM)
